Results taken from PubChem BioAssay (NCI).
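Interpolation was linear, between the two tested concentrations surrounding the appropriate level; five concentrations were tested over 48 hours in 96-well plates. TGI is the concentration that stops growth completely.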 Where a SMILES comes first, the peptide text is derived from it. [ ]: non-standard residue; d: D form. The star is where a group is joined. Phe(4-NO2) = N[CH](Cc1ccc([N+](=O)[O-])cc1)C(=O)O; Boc = CC(C)(C)OC(=O)*

Legend:
Assay in all cases: DTP human tumour cell line panel, 48 h
M14 melanoma = test system: M14 melanoma
U251 CNS = test system: U251 CNS
IGROV1 ovarian = test system: IGROV1 ovarian
T-47D breast = test system: T-47D breast
NCI-H226 lung = test system: NCI-H226 lung
NCI-H460 lung = test system: NCI-H460 lung
SN12C renal = test system: SN12C renal
COLO 205 colon = test system: COLO 205 colon
SK-MEL-5 melanoma = test system: SK-MEL-5 melanoma
OVCAR-5 ovarian = test system: OVCAR-5 ovarian

Row | Structure (SMILES) | TGI (M14 melanoma) [µM] | TGI (U251 CNS) [µM] | TGI (IGROV1 ovarian) [µM] | TGI (T-47D breast) [µM] | TGI (NCI-H226 lung) [µM] | TGI (NCI-H460 lung) [µM] | TGI (SN12C renal) [µM] | TGI (COLO 205 colon) [µM] | TGI (SK-MEL-5 melanoma) [µM] | TGI (OVCAR-5 ovarian) [µM]
1 | Cc1nc(C)c(N2CCN(CN)CC2)c(=O)[nH]1 | > 100 | > 100 | > 100 | > 100 | > 100 | > 100 | > 100 | > 100 | > 100 | –
2 | S=C1C(=Nc2ccccc2)N(c2ccccc2)/C(=N\c2cccc[n+]2Cc2ccccc2)N1c1ccccc1 | 27.5 | – | 54.9 | 61.7 | 40.4 | 50 | 35.4 | 34.9 | 26.7 | 32.7
3 | CCOC(=O)c1c(N2CCCC2)[nH]c(=O)c(C(c2ccc(N(C)C)cc2)c2c(O)c(C(=O)OCC)c(N3CCCC3)[nH]c2=O)c1O | > 100 | > 100 | – | > 100 | > 100 | > 100 | > 100 | > 100 | > 100 | > 100
4 | O=c1[nH]n(CCc2ccccc2CCl)c2ccc([N+](=O)[O-])cc12 | > 100 | > 100 | > 100 | – | > 100 | > 100 | > 100 | > 100 | > 100 | > 100
5 | COc1c(C)c(C/C=C(\C)CCCC(C)CCCC(C)CCCC(C)C)c(OC)c2ccccc12 (stereo not drawn) | > 100 | > 100 | > 100 | – | – | > 100 | > 100 | > 100 | > 100 | > 100
6 | COc1cc2c3c(n(C)c(=O)c2cc1OC)-c1cc2c(cc1/C3=C\CCCCCBr)OCO2 | > 100 | 24.1 | 0.605 | 7.92 | – | 69.8 | > 100 | > 100 | 20.7 | > 100
7 | Cc1ccc(S(=O)(=O)OCCC2CN(C(=O)OCc3ccccc3)C(C)(C)O2)cc1 (stereo not drawn) | 38.1 | > 100 | > 100 | – | 4.35 | 14.3 | > 100 | > 100 | 8.76 | > 100
8 | O=c1cc(N2CCOCC2)n2c(ccc3ccccc32)n1 | > 100 | > 100 | > 100 | > 100 | > 100 | – | > 100 | > 100 | > 100 | > 100
9 | CC(C)OP(=O)(OC(C)C)C(C(C)C)N(C)C(N)=NC#N (stereo not drawn) | > 100 | > 100 | > 100 | > 100 | > 100 | > 100 | > 100 | > 100 | > 100 | –
10 | COC(=O)/C=C\n1nc(Br)c(=O)[nH]c1=O | > 100 | > 100 | > 100 | > 100 | – | > 100 | > 100 | > 100 | > 100 | > 100
11 | CC(=O)CC(=O)N1CCSC1=S | > 10 | > 10 | > 10 | > 10 | > 10 | > 10 | > 10 | – | > 10 | > 10
12 | COc1ccc(/C=c2\[nH]c3nc(=O)c(N4CCCCC4)c(N)n3c2=O)cc1 | > 100 | > 100 | > 100 | > 100 | > 100 | – | > 100 | > 100 | > 100 | > 100
13 | O=Nc1c(-c2c(O)[nH]c3ccc(I)cc23)[nH]c2ccccc12 | > 100 | > 40.9 | 8.51 | > 69.8 | – | > 47.4 | 17.9 | > 100 | > 100 | > 27.1
14 | Cc1ccc(-n2nncc2[Si](C)(C)C)s1 | > 100 | > 100 | – | > 100 | > 100 | > 100 | > 100 | > 100 | > 100 | > 100
15 | O=C(O)CSC1=NNC2(C(=O)N1)c1ccccc1-c1ccccc12 | > 10 | – | > 10 | > 10 | > 10 | > 10 | > 10 | > 10 | > 10 | –
16 | COc1ccc(/C=C2\CCCc3ccccc3C2=O)cc1 | 22.2 | 35.1 | > 100 | – | 2.98 | > 100 | 16.9 | 0.557 | 16 | > 100
17 | O=C1Nc2cccc(Cl)c2/C1=C\c1c(-c2ccccc2)nc2n1CCS2 | 45.2 | 47.4 | 37.5 | 48.9 | – | 40.7 | 31.7 | 39.5 | 51.6 | 48.2
18 | CC(C)(C)OC(=O)C(C#N)C(=O)c1ccc(C(=O)O)[nH]1 (stereo not drawn) | > 100 | > 100 | – | > 100 | > 100 | > 100 | > 100 | > 100 | > 100 | > 100

Row | Structure (SMILES) | TGI (M14 melanoma) [µM] | TGI (U251 CNS) [µM] | TGI (IGROV1 ovarian) [µM] | TGI (T-47D breast) [µM] | TGI (NCI-H226 lung) [µM] | TGI (NCI-H460 lung) [µM] | TGI (SN12C renal) [µM] | TGI (COLO 205 colon) [µM] | TGI (SK-MEL-5 melanoma) [µM] | TGI (OVCAR-5 ovarian) [µM]
19 | COc1cccc2c1OC1c3ccccc3OCC1(O)C2 (stereo not drawn) | > 100 | > 100 | > 100 | > 100 | > 100 | – | > 100 | > 100 | > 100 | > 100
20 | O=C1CC(c2ccsc2)n2cccc21 (stereo not drawn) | > 100 | > 100 | > 100 | > 100 | > 100 | – | > 100 | > 100 | > 100 | > 100
21 | COC(=O)c1c2c(cc3c1CC1(Cc4cc5c(c(C)c4C1)CCC5)C3)CCC2 (stereo not drawn) | > 100 | > 100 | > 100 | > 100 | – | > 100 | – | – | > 100 | > 100
22 | CC(=O)OCC1OC(SC2=NC(=O)CS2)C(OC(C)=O)C(OC(C)=O)C1OC(C)=O (stereo not drawn) | > 100 | – | > 100 | > 100 | > 100 | > 100 | > 100 | – | > 100 | > 100
23 | O=C1c2ccncc2C(=O)c2c(O)ccc(O)c21 | 19.5 | 30.3 | 25.9 | – | 29.4 | 29.4 | 16.1 | 13.1 | – | 29.9
24 | Cc1nc2ccc(Cl)cc2c2c1CCO2 | – | > 100 | > 100 | > 100 | > 100 | > 100 | > 100 | > 100 | > 100 | –
25 | COc1cccc(C(C#N)NNC(=O)c2c(Cl)c(Cl)c(Cl)c(Cl)c2-c2nc3ccc(C(=O)c4ccccc4)cc3[nH]2)c1O (stereo not drawn) | 25.1 | > 100 | > 100 | > 100 | 8.43 | – | 7.79 | > 100 | 10.5 | 70.1
26 | COc1ccc(-n2c(N)c(C#N)c(C#N)c2-c2ccco2)cc1 | > 100 | > 100 | > 100 | > 100 | > 100 | – | > 100 | > 100 | > 100 | > 100
27 | C=CC(C)(C)/C=C/c1ccc(O)cc1 | > 100 | > 100 | > 100 | 95 | – | > 100 | > 100 | > 100 | > 100 | > 100
28 | C/C(=C\Cc1ccc(F)cc1)CCCCCC/C(C)=C/Cc1ccc(F)cc1 | 45.6 | 37.8 | 26.7 | – | – | 17 | 31.5 | 37.6 | 27.8 | 37.9
29 | Cc1cn(C2CC(COCc3ccccc3)N(CCO[Si](C)(C)C(C)(C)C)O2)c(=O)[nH]c1=O (stereo not drawn) | 29.5 | 62.5 | – | 31.1 | – | 35.2 | 25.1 | 28.4 | 12.9 | 32
30 | Cc1nc2ccc(Br)cc2c(=O)n1-c1ccc(N)cc1 | > 100 | – | > 100 | – | > 100 | > 100 | > 100 | > 100 | > 100 | > 100
31 | CCOC(=O)CCC(NC(=O)C(Cc1ccc([N+](=O)[O-])cc1)NC(=O)OC(C)(C)C)C(=O)NC(CCC(=O)OCC)C(=O)OCC (stereo not drawn) (Boc-[Phe(4-NO2)]-Glu(OEt)-Glu(OEt)-OEt; configuration not given here) | 35.9 | 44.6 | 38.3 | – | 35.9 | 57.3 | 49.7 | 57.1 | 31.2 | 46.3
32 | Cc1cc(C)c2c(c1)C/C(=C\c1cccc(C)c1C(=O)O)C2=O | > 100 | – | > 100 | > 100 | > 100 | > 100 | > 100 | – | > 100 | > 100
33 | Cc1ccc(N2C(=O)C3CSCN3C2=O)cc1 (stereo not drawn) | – | > 100 | > 100 | – | > 100 | > 100 | > 100 | > 100 | > 100 | > 100
34 | COc1cc(S(=O)(=O)Nc2ccc(-c3csc(N4C(=O)C(Cl)C4c4ccccc4O)n3)cc2)ccc1Cl (stereo not drawn) | > 100 | – | 56.3 | 29.5 | > 100 | > 100 | > 100 | 90.1 | > 100 | > 100
35 | CCOC(=O)CCc1cn2cc(Br)nc(OC)c2n1 | > 100 | > 100 | > 100 | > 100 | > 100 | > 100 | > 100 | > 100 | > 100 | –
